# Like-named read-outs stand apart in the source and are kept apart here.
# Tests used:
# [1] = target: T1, Pgp (Homo sapiens, UniProt P08183); details: for IC50 values, Pgp stimulated (verapamil-stimulated) ATPase activity: 40 μM verapamil; for IC50 values, Pgp stimulated (verapamil-stimulated) ATPase activity / IC50 values, Pgp basal ATPase activity: Sf9 membranes, mean ± SEM, n=3; for IC50 values, Pgp basal ATPase activity: 10 min pre-incubation 37 °C, 3 mM ATP/Mg2+ 25 min; for Change of apparent KM of verapamil-stimulated Pgp ATPase activity / Change of vmax of verapamil-stimulated Pgp ATPase activity: Figs 5 and 6; for Type of inhibition of the verapamil-stimulated ATPase activity of Pgp: modified Michaelis-Menten fit at different verapamil concentrations
# T1 sequence (P08183 whole entry): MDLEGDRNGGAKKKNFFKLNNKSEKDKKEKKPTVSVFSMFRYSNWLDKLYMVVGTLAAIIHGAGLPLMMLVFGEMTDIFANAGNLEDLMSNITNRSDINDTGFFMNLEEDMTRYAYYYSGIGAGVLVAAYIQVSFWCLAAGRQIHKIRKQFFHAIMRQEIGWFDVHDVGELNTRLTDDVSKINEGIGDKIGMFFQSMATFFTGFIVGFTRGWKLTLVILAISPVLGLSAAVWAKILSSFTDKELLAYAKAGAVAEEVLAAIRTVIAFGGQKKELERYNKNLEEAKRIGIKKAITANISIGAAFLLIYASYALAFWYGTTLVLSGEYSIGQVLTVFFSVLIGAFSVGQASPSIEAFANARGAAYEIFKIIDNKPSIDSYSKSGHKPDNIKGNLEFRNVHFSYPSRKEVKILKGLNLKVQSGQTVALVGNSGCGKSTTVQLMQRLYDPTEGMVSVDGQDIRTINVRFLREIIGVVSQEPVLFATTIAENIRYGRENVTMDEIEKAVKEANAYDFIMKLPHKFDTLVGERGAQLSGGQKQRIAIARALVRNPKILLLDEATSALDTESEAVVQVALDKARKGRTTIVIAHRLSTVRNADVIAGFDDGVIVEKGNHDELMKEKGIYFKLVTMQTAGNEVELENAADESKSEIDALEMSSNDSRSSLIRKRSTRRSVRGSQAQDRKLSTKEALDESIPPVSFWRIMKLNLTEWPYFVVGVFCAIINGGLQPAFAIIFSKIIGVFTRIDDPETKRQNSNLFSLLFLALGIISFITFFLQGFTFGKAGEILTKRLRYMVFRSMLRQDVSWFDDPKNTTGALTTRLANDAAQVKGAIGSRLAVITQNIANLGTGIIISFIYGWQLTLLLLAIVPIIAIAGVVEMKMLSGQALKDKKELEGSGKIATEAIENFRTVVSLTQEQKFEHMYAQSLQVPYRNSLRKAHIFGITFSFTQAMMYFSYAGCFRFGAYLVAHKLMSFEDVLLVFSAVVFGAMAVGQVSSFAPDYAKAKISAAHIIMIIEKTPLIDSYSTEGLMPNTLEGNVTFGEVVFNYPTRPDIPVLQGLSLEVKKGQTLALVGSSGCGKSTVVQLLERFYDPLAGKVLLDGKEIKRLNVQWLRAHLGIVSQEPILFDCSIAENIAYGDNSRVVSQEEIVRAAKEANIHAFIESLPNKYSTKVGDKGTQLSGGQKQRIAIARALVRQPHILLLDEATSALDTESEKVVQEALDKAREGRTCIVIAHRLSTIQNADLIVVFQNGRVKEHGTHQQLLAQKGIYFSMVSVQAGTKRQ
# Experimental: (§1) For ATPase activity measurements we used membrane samples derived from Sf9 (Spodoptera frugiperda) insect ovarian cells expressing human Pgp or ABCG2. cDNAs of the transporters were cloned into recombinant baculovirus transfer vectors, the Sf9 insect ovarian cells were cultured, and infected with the baculoviruses as described in ref. [52]. Sf9 cells overexpressing human Pgp and ABCG2 were harvested and cell membranes were isolated. The protein concentration of the membrane samples were determined by the Lowry method[53]. The ABCG2 expressing Sf9 membrane samples were loaded with cholesterol by cholesterol-methyl-beta-cyclodextrine complex in order to obtain high specific ATPase activity of the transporter[54]. Membrane samples were stored at −80 °C. The transporter expression of the membrane samples (5 μg membrane protein/slot) was routinely checked by immunoblot using the G-1 mAb (for Pgp) or BXP-21 mAb (for ABCG2) and a goat anti-mouse HRP-conjugated IgG secondary antibody. Both primary and secondary antibodies were from Santa Cruz Biotechnology Inc. (CA, USA) and applied at 1:5,000 dilution.
# (§2) The vanadate-sensitive ATPase activity of Pgp and ABCG2 was determined by a colorimetric assay described in refs [32],[55]. Specific ATPase activity of the transporters was calculated from the amount of released inorganic phosphate. […] The absorbance of the samples was measured at 700 nm using a BioTek Synergy HT plate reader (BioTek Instruments, Winooski, USA).
# [2] = system: NIH 3T3 / NIH 3T3 MDR1 and MDCK / MDCK ABCG2 cells; assay: DPH steady-state fluorescence anisotropy (membrane fluidity); details: retinoids 100 μM; for Effect on DPH fluorescence anisotropy: cyclosporin 10 μM, Ko143 2 μM, 10 min 37 °C, all tested cell lines; for Effect on DPH anisotropy in transporter expressing compared to non-expressing cells: Pgp+ vs Pgp− NIH 3T3, ABCG2 expressing vs non-expressing MDCK
# [3] = target: T1, Pgp; assay: Calcein accumulation test (Pgp transport activity) in NIH 3T3 MDR1 cells; details: 20 min pre-treatment 37 °C, 500 nM calcein-AM 20 min
# Experimental: (§3) Calcein-AM was applied to measure the transport activity of Pgp[51], while ABCG2 mediated transport was measured in mitoxantrone accumulation tests[18]. Cells were harvested and washed three times in PBS containing 7 mM glucose (gl-PBS). […] Dead cells were excluded from the analysis on the basis of propidium iodide (PI) staining.
# (§4) Flow cytometric analysis was carried out on a Becton Dickinson FACSAria III Cell Sorter (Becton Dickinson, Mountain View, CA, USA). Calcein was excited by the 488 nm line of a solid state laser and the emitted light was detected using a 502 nm dichroic mirror and a 530/30 nm band-pass filter. […] AlexaFluor647 and mitoxantrone signals were detected with a 633 nm excitation laser and a 660/20 nm band-pass filter.
# [4] = target: T2, ABCG2 (Homo sapiens, UniProt Q9UNQ0); assay: Vanadate-sensitive ATPase activity of ABCG2 in Sf9 membrane preparations; format: biochemical; details: for IC50 values, ABCG2 stimulated (quercetin-stimulated) ATPase activity / IC50 values, ABCG2 basal ATPase activity / IC50: cholesterol-loaded Sf9 membranes, mean ± SEM, n=3; for Change of apparent KM of quercetin-stimulated ABCG2 ATPase activity / Change of vmax of quercetin-stimulated ABCG2 ATPase activity: Figs 5 and 6; for Type of inhibition of the quercetin-stimulated ATPase activity of ABCG2: modified Michaelis-Menten fit at different quercetin concentrations
# T2 sequence (Q9UNQ0 1-655): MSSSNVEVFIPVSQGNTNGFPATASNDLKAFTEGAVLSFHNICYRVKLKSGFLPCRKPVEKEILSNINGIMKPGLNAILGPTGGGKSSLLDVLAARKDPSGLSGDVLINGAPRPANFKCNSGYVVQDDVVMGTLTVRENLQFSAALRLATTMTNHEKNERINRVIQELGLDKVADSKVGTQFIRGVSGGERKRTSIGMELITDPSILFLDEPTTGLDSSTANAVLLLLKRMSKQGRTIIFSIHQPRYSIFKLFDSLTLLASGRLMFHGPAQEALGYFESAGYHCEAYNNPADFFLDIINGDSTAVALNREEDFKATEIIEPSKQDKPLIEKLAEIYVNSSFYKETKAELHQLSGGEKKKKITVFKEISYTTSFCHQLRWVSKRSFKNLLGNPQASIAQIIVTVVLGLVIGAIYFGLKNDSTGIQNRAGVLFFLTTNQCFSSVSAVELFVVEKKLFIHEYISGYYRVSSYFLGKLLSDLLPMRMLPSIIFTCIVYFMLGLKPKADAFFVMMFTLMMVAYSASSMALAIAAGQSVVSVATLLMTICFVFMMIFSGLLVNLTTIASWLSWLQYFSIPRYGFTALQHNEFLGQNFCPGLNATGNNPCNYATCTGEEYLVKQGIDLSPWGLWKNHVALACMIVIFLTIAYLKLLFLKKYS
# Experimental: For ATPase activity measurements we used membrane samples derived from Sf9 (Spodoptera frugiperda) insect ovarian cells expressing human Pgp or ABCG2. cDNAs of the transporters were cloned into recombinant baculovirus transfer vectors, the Sf9 insect ovarian cells were cultured, and infected with the baculoviruses as described in ref. [52]. Sf9 cells overexpressing human Pgp and ABCG2 were harvested and cell membranes were isolated. The protein concentration of the membrane samples were determined by the Lowry method. The ABCG2 expressing Sf9 membrane samples were loaded with cholesterol by cholesterol-methyl-beta-cyclodextrine complex in order to obtain high specific ATPase activity of the transporter. Membrane samples were stored at −80 °C. The transporter expression of the membrane samples (5 μg membrane protein/slot) was routinely checked by immunoblot using the G-1 mAb (for Pgp) or BXP-21 mAb (for ABCG2) and a goat anti-mouse HRP-conjugated IgG secondary antibody. Both primary and secondary antibodies were from Santa Cruz Biotechnology Inc. (CA, USA) and applied at 1:5,000 dilution.
# The vanadate-sensitive ATPase activity of Pgp and ABCG2 was determined by a colorimetric assay described in refs [32],[55]. Specific ATPase activity of the transporters was calculated from the amount of released inorganic phosphate. […]. The absorbance of the samples was measured at 700 nm using a BioTek Synergy HT plate reader (BioTek Instruments, Winooski, USA).
# The half-inhibitory doses (IC50) of retinoids were determined by fitting the dose-response relationships with a four parameter sigmoidal curve, where Amax and Amin are the ATPase activities measured at zero and at infinitely high inhibitor concentrations, respectively, n is the Hill coefficient and x is the concentration of the inhibitor:
# Upon studying the kinetics of inhibition of the substrate-stimulated ATPase activity by retinoids data points were fitted with a modified form of the Michaelis-Menten equation[56] which includes the Hill coefficient, n: […]
# v0 is the basal ATPase activity measured in the absence of the stimulatory substrate, while vmax is the maximal extent of ATPase stimulation and KM is the Michaelis constant (i.e. the substrate concentration at which the reaction rate is half of vmax).
# [5] = target: T2, ABCG2; assay: Mitoxantrone accumulation test (ABCG2 transport activity) in MDCK ABCG2 cells; details: 20 min pre-treatment 37 °C, 5 μM mitoxantrone 40 min
# Experimental: as §3, §4
# [6] = target: T1, Pgp; assay: biochemical; details: IC50 values, Sf9 membranes, mean ± SEM, n=3
# Experimental: as §1, §2
# [7] = cited from earlier work
# [8] = system: Pgp- and ABCG2-negative NIH 3T3 and MDCK cells; assay: Calcein and mitoxantrone accumulation in transporter negative cells; format: cell-based, mouse / canine; details: NIH 3T3 (calcein) and MDCK (mitoxantrone), Supplementary Fig. S1, 50 µM
# Experimental: Supplementary Fig. S1: Effect of retinoid derivatives on the calcein (a) and
# mitoxantrone (c) accumulation and viability (b, d) of Pgp- and ABCG2-negative NIH
# 3T3 and MDCK cells. Cells were pre-treated with retinoids added at 50 µM concentration
# Cell viability was determined on the basis of propidium iodide exclusion.
# (1 picture or pasted object on this page, not shown here)
# [9] = cited from earlier work; for Plasma concentrations resulting from chemotherapy use: treatment of neuroblastoma or squamous cell carcinoma, ref [24][25][26]
# [10] = Pgp basal ATPase activity, 10 min pre-incubation 37 °C, 3 mM ATP/Mg2+ 25 min
# [11] = Pgp stimulated (verapamil-stimulated) ATPase activity, 40 μM verapamil
# [12] = 10 μM quercetin, read-out: IC50 values, ABCG2 stimulated (quercetin-stimulated) ATPase activity
# [13] = read-out: IC50 values, ABCG2 basal ATPase activity
smiles,measurement,setting,value
CC1=C(/C=C/C(C)=C\C=C\C(C)=C\C(=O)O)C(C)(C)CCC1 [9-cis-retinoic acid],"IC50 values, Pgp stimulated (verapamil-stimulated) ATPase activity",[1],No effect
same,"IC50 values, Pgp basal ATPase activity",[1],No effect
same,Effect on DPH fluorescence anisotropy,[2],did not have any effect
same,Effect on calcein accumulation of Pgp expressing cells (Pgp transport activity),[3],none of them had any effect
same,"IC50 values, ABCG2 stimulated (quercetin-stimulated) ATPase activity",[4]; 10 μM quercetin,No effect
same,"IC50 values, ABCG2 basal ATPase activity",[4],No effect
same,Effect on mitoxantrone accumulation of ABCG2 expressing cells (ABCG2 transport activity),[5],none of them had any effect
CC1=C(/C=C/C(C)=C/C=C/C(C)=C/CO)C(C)(C)CCC1 [Retinol],Change of apparent KM of verapamil-stimulated Pgp ATPase activity,[1],increased the KM
same,Change of vmax of verapamil-stimulated Pgp ATPase activity,[1],decreased the vmax
same,Type of inhibition of the verapamil-stimulated ATPase activity of Pgp,[1],mixed-type transporter inhibition
same,Effect on DPH fluorescence anisotropy,[2],increased the DPH fluorescence anisotropy values significantly
same,Effect on DPH anisotropy in transporter expressing compared to non-expressing cells,[2],similarly
same,IC50,[6]; [10],23.5 ± 4 µM
same,IC50,[6]; [11],27.9 ± 0.7 µM
same,Effect on calcein accumulation of Pgp expressing cells (Pgp transport activity),[3],increased the cellular accumulation of the fluorescent transporter substrates in a concentration dependent manner
same,"LogP (octanol-water partition coefficient, LogPow)",[7]; ref PubChem Compound Database (CID),5.7
same,IC50,[4]; [12],95.2 ± 10.6 µM
same,Change of apparent KM of quercetin-stimulated ABCG2 ATPase activity,[4],increased the KM
same,Change of vmax of quercetin-stimulated ABCG2 ATPase activity,[4],decreased the vmax
same,IC50,[4]; [13],31.6 ± 4.2 µM
same,Type of inhibition of the quercetin-stimulated ATPase activity of ABCG2,[4],mixed-type transporter inhibition
same,Effect on mitoxantrone accumulation of ABCG2 expressing cells (ABCG2 transport activity),[5],increased the cellular accumulation of the fluorescent transporter substrates in a concentration dependent manner
same,Effect on substrate accumulation of transporter negative cells,[8],did not have any effect
same,Concentration present in the plasma (physiological),[9]; ref [20],1–2 micromolar
CC1=C(/C=C/C(C)=C/C=C/C(C)=C\C(=O)O)C(C)(C)CCC1 [13-cis-retinoic acid],Change of apparent KM of verapamil-stimulated Pgp ATPase activity,[1],did not induce statistically significant KM increase
same,Change of vmax of verapamil-stimulated Pgp ATPase activity,[1],decreased the vmax
same,Type of inhibition of the verapamil-stimulated ATPase activity of Pgp,[1],inhibits Pgp only non-competitively
same,Effect on DPH fluorescence anisotropy,[2],increased the DPH fluorescence anisotropy values significantly
same,Effect on DPH anisotropy in transporter expressing compared to non-expressing cells,[2],similarly
same,IC50,[6]; [10],60.5 ± 11.4 µM
same,IC50,[6]; [11],26.8 ± 2 µM
same,Effect on calcein accumulation of Pgp expressing cells (Pgp transport activity),[3],increased the cellular accumulation of the fluorescent transporter substrates in a concentration dependent manner
same,IC50,[4]; [12],76.5 ± 2.3 µM
same,Change of apparent KM of quercetin-stimulated ABCG2 ATPase activity,[4],apparent increase of the KMvalues
same,Change of vmax of quercetin-stimulated ABCG2 ATPase activity,[4],decreased the vmax value
same,IC50,[4]; [13],70.6 ± 9 µM
same,Type of inhibition of the quercetin-stimulated ATPase activity of ABCG2,[4],mixed-type transporter inhibition
same,Effect on mitoxantrone accumulation of ABCG2 expressing cells (ABCG2 transport activity),[5],increased the cellular accumulation of the fluorescent transporter substrates in a concentration dependent manner
same,Effect on substrate accumulation of transporter negative cells,[8],did not have any effect
same,Plasma concentrations resulting from chemotherapy use,[9],10 to 20 µM
"CC1=C(/C=C/C(C)=C/C=C/C(C)=C/C(=O)O)C(C)(C)CCC1 [All-trans-retinoic-acid, all-trans retinoic acid]","IC50 values, Pgp stimulated (verapamil-stimulated) ATPase activity",[1],No effect
same,"IC50 values, Pgp basal ATPase activity",[1],No effect
same,Effect on DPH fluorescence anisotropy,[2],did not have any effect
same,Effect on calcein accumulation of Pgp expressing cells (Pgp transport activity),[3],none of them had any effect
same,"IC50 values, ABCG2 stimulated (quercetin-stimulated) ATPase activity",[4]; 10 μM quercetin,No effect
same,"IC50 values, ABCG2 basal ATPase activity",[4],No effect
same,Effect on mitoxantrone accumulation of ABCG2 expressing cells (ABCG2 transport activity),[5],none of them had any effect
same,Plasma concentrations resulting from chemotherapy use,[9],10 to 20 µM
O=c1c(O)c(-c2ccc(O)c(O)c2)oc2cc(O)cc(O)c12 [quercetin],"LogP (octanol-water partition coefficient, LogPow)","[7]; ref 2 (Rothwell et al., 2005)",1.8
same,Stimulated ATPase activity of ABCG2,[4]; 10 μM quercetin,60–70 nmol Pi/ mg protein/min
same,Stimulation of ABCG2 ATPase activity,"[4]; 10 μM quercetin, maximum stimulation",~2 fold
"CC1=C(/C=C/C(C)=C/C=C/C(C)=C/C(=O)O)C(C)(C)CCC1=O [All-trans-4-oxo-retinoic acid, all-trans-4-oxo-retinoic acid]","IC50 values, Pgp stimulated (verapamil-stimulated) ATPase activity",[1],Weak inhibition
same,"IC50 values, Pgp basal ATPase activity",[1],No effect
same,"IC50 values, ABCG2 stimulated (quercetin-stimulated) ATPase activity",[4]; 10 μM quercetin,No effect
same,"IC50 values, ABCG2 basal ATPase activity",[4],No effect
CCC(=O)OC/C=C(C)/C=C/C=C(C)/C=C/C1=C(C)CCCC1(C)C [Retinyl-propionate],"IC50 values, Pgp stimulated (verapamil-stimulated) ATPase activity",[1],No effect
same,"IC50 values, Pgp basal ATPase activity",[1],No effect
same,Effect on calcein accumulation of Pgp expressing cells (Pgp transport activity),[3],none of them had any effect
same,"IC50 values, ABCG2 stimulated (quercetin-stimulated) ATPase activity",[4]; 10 μM quercetin,No effect
same,"IC50 values, ABCG2 basal ATPase activity",[4],No effect
same,Effect on mitoxantrone accumulation of ABCG2 expressing cells (ABCG2 transport activity),[5],none of them had any effect
